TGI data for nine compounds are collected here from PubChem BioAssay (NCI).

Some test systems named below: DU-145 prostate; K-562 leukemia; NCI-H522 lung; COLO 205 colon; SK-MEL-2 melanoma; CCRF-CEM leukemia; HCC-2998 colon; NCI-H226 lung; OVCAR-5 ovarian; PC-3 prostate; NCI-H460 lung; SNB-19 CNS; HS 578T breast; SK-MEL-5 melanoma; MOLT-4 leukemia; SR leukemia; ACHN renal; IGROV1 ovarian; U251 CNS; RPMI-8226 leukemia.
Experiment in all cases: NCI-60 cell line screen, 48 h

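All cell lines were grown in 96-well plates and treated with compound for 48 hours. TGI marks complete inhibition of growth.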

As for `OCC1OC(NCCNCCNC2OC(CO)C(O)C(O)C2O)C(O)C(O)C1O` (stereo not given), the TGI in the assay on DU-145 prostate, with K-562 leukemia, with NCI-H522 lung, in the assay on COLO 205 colon, with SK-MEL-2 melanoma and in the assay on CCRF-CEM leukemia was more than 100 µM throughout. For the same compound, the TGI in the assay with HCC-2998 colon, in the assay on NCI-H226 lung, in the assay with OVCAR-5 ovarian, in the assay with PC-3 prostate, in the assay on NCI-H460 lung and in the assay with SNB-19 CNS was more than 100 µM in each case. Further, the TGI with HS 578T breast, in the assay with SK-MEL-5 melanoma, with MOLT-4 leukemia, in the assay with SR leukemia, with ACHN renal and in the assay on IGROV1 ovarian was more than 100 µM in each case. Further, the TGI in the assay with U251 CNS and in the assay on RPMI-8226 leukemia was more than 100 µM each time.

With `COc1cc(C[C@H]2C(=O)OC[C@@H]2Cc2ccc(OC)c(OC)c2)cc(OC)c1`, the TGI in the assay with DU-145 prostate, with K-562 leukemia, in the assay with NCI-H522 lung, in the assay with COLO 205 colon, in the assay with SK-MEL-2 melanoma and in the assay on CCRF-CEM leukemia was more than 100 µM throughout. For the same compound, the TGI in the assay on HCC-2998 colon, in the assay with NCI-H226 lung, with OVCAR-5 ovarian, in the assay with PC-3 prostate, with NCI-H460 lung and with SNB-19 CNS was more than 100 µM throughout. For the same compound, the TGI with HS 578T breast was more than 100 µM; in the assay with SK-MEL-5 melanoma, 54.5 µM; in the assay with MOLT-4 leukemia it was more than 100 µM; in the assay with SR leukemia it was more than 100 µM; in the assay with ACHN renal, more than 100 µM; with IGROV1 ovarian it was more than 100 µM. Moreover, the TGI in the assay with U251 CNS and in the assay with RPMI-8226 leukemia was more than 100 µM each time.

`CCOP1(=O)C=C(Sc2ccc([N+](=O)[O-])cc2[N+](=O)[O-])C(C)(C)O1` (stereo not given): the TGI was 26.4 µM in the assay on DU-145 prostate; more than 20 µM in the assay with K-562 leukemia; 9.36 µM in the assay with NCI-H522 lung; 23.9 µM in the assay with COLO 205 colon; 35.3 µM in the assay with SK-MEL-2 melanoma; 16.4 µM in the assay on CCRF-CEM leukemia. Also, the TGI was 39.7 µM with HCC-2998 colon; 47.2 µM in the assay with NCI-H226 lung; 43.4 µM in the assay on OVCAR-5 ovarian; more than 50.1 µM in the assay on PC-3 prostate; 49.2 µM with NCI-H460 lung; more than 57.8 µM in the assay with SNB-19 CNS. The TGI was more than 78.8 µM in the assay on HS 578T breast; 23 µM in the assay with SK-MEL-5 melanoma; more than 100 µM in the assay on MOLT-4 leukemia; 7.17 µM in the assay with SR leukemia; 28 µM with ACHN renal; 30.4 µM in the assay with IGROV1 ovarian. The TGI with U251 CNS came out at 30.3 µM; in the assay on RPMI-8226 leukemia it was 39.2 µM.

Turning to `O=c1[nH]/c(=C/c2ccc(OCc3ccccc3)cn2)c(=O)[nH]/c1=C/c1ccc(Cl)cc1`, the TGI in the assay on DU-145 prostate is more than 100 µM; in the assay with K-562 leukemia it was more than 100 µM; with NCI-H522 lung, more than 84.9 µM; in the assay with COLO 205 colon, more than 100 µM; with SK-MEL-2 melanoma it was more than 100 µM; with CCRF-CEM leukemia, more than 100 µM. Also, the TGI in the assay with HCC-2998 colon, with NCI-H226 lung, with OVCAR-5 ovarian, in the assay on PC-3 prostate, with NCI-H460 lung and in the assay on SNB-19 CNS was more than 100 µM each time. Moreover, the TGI in the assay with HS 578T breast is 2.68 µM; with SK-MEL-5 melanoma, more than 100 µM; with MOLT-4 leukemia, more than 100 µM; with SR leukemia, 4.53 µM; in the assay on ACHN renal, more than 100 µM; in the assay with IGROV1 ovarian it was more than 100 µM. Further, the TGI with U251 CNS and in the assay on RPMI-8226 leukemia was more than 100 µM in each case.

On to `C(=C\c1nccs1)/c1cccc(/C=C/c2nccs2)n1`, for which the TGI in the assay on DU-145 prostate, with K-562 leukemia, with NCI-H522 lung, in the assay with COLO 205 colon, with SK-MEL-2 melanoma and in the assay with CCRF-CEM leukemia was more than 50 µM in each case. Moreover, the TGI with HCC-2998 colon, with NCI-H226 lung, with OVCAR-5 ovarian, with PC-3 prostate, with NCI-H460 lung and with SNB-19 CNS was more than 50 µM in each case. For the same compound, the TGI with HS 578T breast, with SK-MEL-5 melanoma, in the assay on MOLT-4 leukemia, in the assay with SR leukemia, in the assay with ACHN renal and in the assay with IGROV1 ovarian was more than 50 µM in each case. For the same compound, the TGI in the assay on U251 CNS and in the assay with RPMI-8226 leukemia was more than 50 µM in each case.

Turning to `COc1cc(Cn2c(=S)ss/c2=N\C(=S)N(C)C)cc(OC)c1OC`, the TGI in the assay with DU-145 prostate was more than 39.5 µM; with K-562 leukemia, more than 100 µM; in the assay on NCI-H522 lung it was 15.7 µM; in the assay on COLO 205 colon it was more than 86.9 µM; in the assay on SK-MEL-2 melanoma, more than 100 µM; in the assay on CCRF-CEM leukemia, more than 77.5 µM. The TGI in the assay on HCC-2998 colon was more than 95.4 µM; in the assay on NCI-H226 lung, more than 71 µM; in the assay on OVCAR-5 ovarian, more than 100 µM; in the assay on PC-3 prostate it was more than 100 µM; with NCI-H460 lung, 52.3 µM; with SNB-19 CNS it was more than 100 µM. Also, the TGI was more than 100 µM in the assay on HS 578T breast; 56.4 µM in the assay on SK-MEL-5 melanoma; more than 100 µM with MOLT-4 leukemia; more than 61.2 µM with SR leukemia; more than 88.8 µM with ACHN renal; more than 96 µM in the assay on IGROV1 ovarian. The TGI in the assay with U251 CNS was more than 82 µM; with RPMI-8226 leukemia, more than 85.8 µM.

In the case of `O=C1c2cc3c(cc2CC12Cc1cc4c(cc1C2=O)CCC4)CCC3`, the TGI in the assay on DU-145 prostate, in the assay with K-562 leukemia, in the assay on NCI-H522 lung, with COLO 205 colon, in the assay with SK-MEL-2 melanoma and with CCRF-CEM leukemia was more than 100 µM each time. The TGI with HCC-2998 colon, in the assay on NCI-H226 lung, with OVCAR-5 ovarian, with PC-3 prostate, in the assay with NCI-H460 lung and in the assay with SNB-19 CNS was more than 100 µM throughout. Besides, the TGI in the assay on HS 578T breast, in the assay with SK-MEL-5 melanoma, in the assay on MOLT-4 leukemia, in the assay on SR leukemia, with ACHN renal and in the assay on IGROV1 ovarian was more than 100 µM in each case. Moreover, the TGI in the assay on U251 CNS and in the assay with RPMI-8226 leukemia was more than 100 µM in each case.

For `CCCc1c(O)c(=O)c2c(OC)cc(OC)c3c4c(OC)cc(OC)c5c(=O)c(O)c(CCC)c(c1c23)c54`, the TGI in the assay with DU-145 prostate worked out at 3.73 µM; in the assay with K-562 leukemia it was 0.589 µM; in the assay with NCI-H522 lung, 1.15 µM; in the assay with COLO 205 colon it was 8.94 µM; in the assay on SK-MEL-2 melanoma, 8.71 µM; with CCRF-CEM leukemia, 0.582 µM. Moreover, the TGI with HCC-2998 colon was 17.1 µM; in the assay on NCI-H226 lung it was 10.9 µM; in the assay on OVCAR-5 ovarian, 19.4 µM; with PC-3 prostate, 18.2 µM; in the assay with NCI-H460 lung, 2.31 µM; in the assay with SNB-19 CNS it was 12.7 µM. In addition, the TGI in the assay with HS 578T breast stood at 72.2 µM; in the assay with SK-MEL-5 melanoma, 1.91 µM; with MOLT-4 leukemia it was 1.23 µM; in the assay on SR leukemia, 0.463 µM; with ACHN renal it was 3.58 µM; in the assay on IGROV1 ovarian, 3.97 µM. In addition, the TGI in the assay on U251 CNS came to 11.3 µM; in the assay on RPMI-8226 leukemia it was 1.11 µM.

Regarding `CN=CN(C)c1c2ccccc2nc2ccccc12`, the TGI in the assay with DU-145 prostate, in the assay with K-562 leukemia, in the assay on NCI-H522 lung, in the assay with COLO 205 colon, in the assay with SK-MEL-2 melanoma and in the assay on CCRF-CEM leukemia was more than 100 µM in each case. Besides, the TGI with HCC-2998 colon, in the assay on NCI-H226 lung, in the assay on OVCAR-5 ovarian, in the assay with PC-3 prostate, with NCI-H460 lung and in the assay with SNB-19 CNS was more than 100 µM in each case. For the same compound, the TGI in the assay with HS 578T breast, in the assay with SK-MEL-5 melanoma, in the assay on MOLT-4 leukemia, in the assay on SR leukemia, with ACHN renal and in the assay on IGROV1 ovarian was more than 100 µM in each case. For the same compound, the TGI in the assay on U251 CNS and with RPMI-8226 leukemia was more than 100 µM throughout.
